Experimental data published in patent publication US9957251B2 (Takeda Pharmaceutical Company Limited, priority 2014, dated 2018).

Legend:
[1] = system: human multiple myeloma RPMI8226 cells; assay: Inhibitory activity against human multiple myeloma RPMI8226 cell growth (CellTiter-Glo); type: cell-based; details: Homo sapiens, RPMI-8226, 192 h, 1 μM of the test compound, cultured for 8 days; read-out: Percent inhibition of RPMI8226 cell growth (%)
Procedure: The compound of the present invention was evaluated for its inhibitory activity against human multiple myeloma RPMI8226 cell growth by the following method.
A suspension of human multiple myeloma RPMI8226 cells (purchased from the Health Protection Agency) was inoculated at 40 μL (300 cells/well) to a 384-well plate and cultured at 37° C. for 1 day in a 5% CO2 incubator. After the culture, each test compound solution was added thereto at a test concentration of 1 μM using TECAN D300, and the cells were further cultured for 8 days. After the culture, CellTiter-Glo™ Luminescent Cell Viability Assay reagent (Promega) was added at 40 μL/well to a 384-well plate, and the amount of luminescence was measured using a luminometer. Inhibitory activity against human multiple myeloma RPMI8226 cell growth (percent inhibition (%)) of the test compound was calculated according to the following formula, which is based on the hypothesis that the amount of residual ATP reflects the number of cells. In this formula, 100% control represents the amount of luminescence from a well with only 0.1% DMSO added. Percent inhibition (%)=(1−(amount of luminescence of the test compound)÷(100% control))×100

[2] = biological target: T1, CDK19 (CDC2L6/CycC) (Homo sapiens, UniProt Q9BWU1); assay: CDK19 inhibitory activity (TR-FRET, Kinase Tracer-236 displacement); type: binding; details: 1 μM of the test compound; read-out: Percent inhibition of CDK19 activity (%)
T1 construct: purchased Carna Biosciences
T1 sequence (Q9BWU1 whole entry): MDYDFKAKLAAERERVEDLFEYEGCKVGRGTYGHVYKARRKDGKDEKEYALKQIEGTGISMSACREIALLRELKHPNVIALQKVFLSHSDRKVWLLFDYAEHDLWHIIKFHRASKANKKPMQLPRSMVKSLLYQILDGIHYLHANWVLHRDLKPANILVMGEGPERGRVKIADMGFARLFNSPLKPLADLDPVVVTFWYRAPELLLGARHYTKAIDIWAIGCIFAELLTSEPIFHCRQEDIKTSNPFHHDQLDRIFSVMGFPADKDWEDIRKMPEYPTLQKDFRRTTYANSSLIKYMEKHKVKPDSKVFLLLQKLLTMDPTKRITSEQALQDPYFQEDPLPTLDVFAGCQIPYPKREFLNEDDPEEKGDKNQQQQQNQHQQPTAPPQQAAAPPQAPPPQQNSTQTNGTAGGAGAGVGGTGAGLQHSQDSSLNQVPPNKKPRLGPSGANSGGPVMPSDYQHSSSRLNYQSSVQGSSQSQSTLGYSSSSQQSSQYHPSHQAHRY
T1 sequence (P24863 whole entry partner): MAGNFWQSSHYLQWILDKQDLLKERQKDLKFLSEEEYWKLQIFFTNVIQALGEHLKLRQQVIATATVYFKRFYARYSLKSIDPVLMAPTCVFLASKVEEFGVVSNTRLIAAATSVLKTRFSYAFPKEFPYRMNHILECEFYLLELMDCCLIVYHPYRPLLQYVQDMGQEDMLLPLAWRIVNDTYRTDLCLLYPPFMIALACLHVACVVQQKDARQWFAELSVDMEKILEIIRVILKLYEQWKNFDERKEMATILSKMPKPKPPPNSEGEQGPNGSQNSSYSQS
Procedure: (§1) The compound of the present invention was evaluated for its CDK8 inhibitory activity and CDK19 inhibitory activity by the following method. […] The primary diluted solution was dispensed in the amount of 2 μL/well to a 384-well plate, and then, a mixed solution of Eu^3+ Cryptate conjugated mouse monoclonal antibody anti-glutathione S-transferase (Cisbio) diluted 267-fold with an assay buffer and 60 nM Kinase Tracer-236 (Life technologies) was added thereto at 2 μL/well. After the addition, each kinase solution (84 ng/mL CDK8/CycC (Carna Biosciences) diluted with an assay buffer used for CDK8 inhibitory activity measurement, and 87 ng/mL CDC2L6/CycC (Carna Biosciences) diluted with an assay buffer used for CDK19 inhibitory activity measurement) was further added thereto at 2 μL/well. After the addition, the plate was left standing at room temperature for 1 hour, and then, the fluorescence intensity (excitation wavelength 320 nm, fluorescence wavelength 615 nm, 665 nm, delay time 50 μsec) was measured using an EnVision plate reader (PerkinElmer).

[3] = biological target: T2, CDK8/CycC (Homo sapiens, UniProt P49336); assay: CDK8 inhibitory activity (TR-FRET, Kinase Tracer-236 displacement); type: binding; details: 1 μM of the test compound; read-out: Percent inhibition of CDK8 activity (%)
T2 construct: purchased Carna Biosciences
T2 sequence (P49336 whole entry): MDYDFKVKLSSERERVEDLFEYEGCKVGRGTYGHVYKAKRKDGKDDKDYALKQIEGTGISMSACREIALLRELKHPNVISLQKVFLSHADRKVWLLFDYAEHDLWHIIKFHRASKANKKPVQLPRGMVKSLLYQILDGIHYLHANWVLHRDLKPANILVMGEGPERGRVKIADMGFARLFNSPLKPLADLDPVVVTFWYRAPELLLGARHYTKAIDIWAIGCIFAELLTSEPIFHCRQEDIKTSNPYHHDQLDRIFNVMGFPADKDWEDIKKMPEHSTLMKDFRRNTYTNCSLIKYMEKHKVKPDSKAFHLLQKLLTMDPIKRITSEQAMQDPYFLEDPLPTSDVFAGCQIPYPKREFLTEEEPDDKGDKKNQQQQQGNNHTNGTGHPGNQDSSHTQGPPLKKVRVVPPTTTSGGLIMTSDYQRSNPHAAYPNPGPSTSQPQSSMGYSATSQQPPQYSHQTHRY
T2 sequence (P24863 whole entry partner): as the sequence (P24863 whole entry partner) above
Procedure: as §1

| SMILES | inhibition at 1 µM [2] | inhibition at 1 µM [3] | inhibition at 1 µM [1] |
| --- | --- | --- | --- |
| Cn1cc(-c2ccncc2/C=C/C(=O)Nc2ccc(CN3CC(F)(F)C3)cc2)cn1 [Example 69, (2E)-N-(4-((3,3-difluoroazetidin-1-yl)methyl)phenyl)-3-(4-(1-methyl-1H-pyrazol-4-yl)pyridin-3-yl)acrylamide] | 99% | 99% | 48% |
| Cn1cc(-c2ccncc2/C=C/C(=O)Nc2ccc(CN3CCOCC3)cc2)cn1 [Example 31, (2E)-3-(4-(1-Methyl-1H-pyrazol-4-yl)pyridin-3-yl)-N-(4-(morpholin-4-ylmethyl)phenyl)acrylamide] | 98% | 100% | 60% |
| Cn1cc(-c2ccncc2/C=C/C(=O)Nc2ccc(CN3CCN4CCCC4C3)cc2)cn1 (stereo not drawn) [Example 78, (2E)-N-(4-(hexahydropyrrolo[1,2-a]pyrazin-2(1H)-ylmethyl)phenyl)-3-(4-(1-methyl-1H-pyrazol-4-yl)pyridin-3-yl)acrylamide] | 74% | 100% | 59% |
| O=C(/C=C/c1cnccc1-c1cncs1)Nc1ccc(CN2CCOCC2)cc1 [Example 195, (2E)-N-(4-(morpholin-4-ylmethyl)phenyl)-3-(4-(1,3-thiazol-5-yl)pyridin-3-yl)acrylamide] | 97% | 94% | 52% |
| Cn1cc(-c2ccncc2/C=C/C(=O)Nc2ccc(CN3CC4CCC(C3)O4)cc2)cn1 [Example 50, (2E)-3-(4-(1-methyl-1H-pyrazol-4-yl)pyridin-3-yl)-N-(4-(8-oxa-3-azabicyclo[3.2.1]oct-3-ylmethyl)phenyl)acrylamide] | 97% | 96% | 61% |
| CC(=O)n1cc(-c2ccncc2/C=C/C(=O)Nc2ccc(CN3CCOCC3)cc2)cn1 [Example 218, (2E)-3-(4-(1-Acetyl-1H-pyrazol-4-yl)pyridin-3-yl)-N-(4-(morpholin-4-ylmethyl)phenyl)acrylamide] | 101% | 96% | 65% |
| O=C(/C=C/c1cnccc1-c1cnn2ccccc12)Nc1ccc(CN2CCOCC2)cc1 [Example 101, (2E)-N-(4-(morpholin-4-ylmethyl)phenyl)-3-(4-(pyrazolo[1,5-a]pyridin-3-yl)pyridin-3-yl)acrylamide] | 97% | 98% | 55% |
| COc1ccsc1-c1ccncc1/C=C/C(=O)Nc1ccc(CN2CCOCC2)cc1 [Example 100, (2E)-3-(4-(3-methoxy-2-thienyl)pyridin-3-yl)-N-(4-(morpholin-4-ylmethyl)phenyl)acrylamide] | 100% | 97% | 52% |
| Cn1cc(-c2ccncc2/C=C/C(=O)Nc2ccc(CCC(F)(F)F)cc2)cn1 [Example 124, (2E)-3-(4-(1-methyl-1H-pyrazol-4-yl)pyridin-3-yl)-N-(4-(3,3,3-trifluoropropyl)phenyl)acrylamide] | 99% | 98% | 53% |
| CN(C)CCc1ccc(NC(=O)/C=C/c2cnccc2-c2cnn(C)c2)cc1 [Example 226, (2E)-N-(4-(2-(dimethylamino)ethyl)phenyl)-3-(4-(1-methyl-1H-pyrazol-4-yl)pyridin-3-yl)acrylamide] | 98% | 98% | 66% |

Second part, led by results:

| inhibition at 1 µM [2] | inhibition at 1 µM [3] | SMILES | inhibition at 1 µM [1] |
| --- | --- | --- | --- |
| 89% | 95% | O=C(/C=C/c1cnccc1-c1cnn(C2CC2)c1)Nc1ccc(C2CC2)cc1 [Example 290] | 53% |
| 100% | 106% | Cn1cc(-c2c(F)cncc2/C=C/C(=O)Nc2ccc3c(c2)CN(CC(C)(F)F)C3)cn1 [Example 351, (2E)-N-(2-(2,2-difluoropropyl)-2,3-dihydro-1H-isoindol-5-yl)-3-(5-fluoro-4-(1-methyl-1H-pyrazol-4-yl)pyridin-3-yl)acrylamide] | 63% |
| 96% | 95% | O=C(/C=C/c1cnccc1-c1ccc2ncn(CC3CC3)c2c1)Nc1ccc(CN2CCOCC2)cc1 [Example 283, (2E)-3-(4-(1-(Cyclopropylmethyl)-1H-benzimidazol-6-yl)pyridin-3-yl)-N-(4-(morpholin-4-ylmethyl)phenyl)acrylamide] | 60% |
| 98% | 99% | O=C(/C=C/c1cnccc1-c1cnn(C2CC2)c1)Nc1ccc2c(ccn2CC(F)(F)F)c1 [Example 266, (2E)-3-(4-(1-Cyclopropyl-1H-pyrazol-4-yl)pyridin-3-yl)-N-(1-(2,2,2-trifluoroethyl)-1H-indol-5-yl)acrylamide] | 57% |
| 101% | 103% | O=C(/C=C/c1cnccc1-c1cnn(C2CC2)c1)Nc1ccc2c(c1)CN(CC(F)(F)F)C2 [Example 319, (2E)-3-(4-(1-Cyclopropyl-1H-pyrazol-4-yl)pyridin-3-yl)-N-(2-(2,2,2-trifluoroethyl)-2,3-dihydro-1H-isoindol-5-yl)acrylamide] | 47% |
| 93% | 97% | Cn1cc2cc(-c3ccncc3/C=C/C(=O)Nc3ccc(CN4CCOCC4)cc3)ccc2n1 [Example 261, (2E)-3-(4-(2-methyl-2H-indazol-5-yl)pyridin-3-yl)-N-(4-(morpholin-4-ylmethyl)phenyl)acrylamide] | 52% |
| 95% | 96% | CCN1CCc2cc(NC(=O)/C=C/c3cnccc3-c3cnn(C)c3)ccc2C1 [Example 256, (2E)-N-(2-ethyl-1,2,3,4-tetrahydroisoquinolin-6-yl)-3-(4-(1-methyl-1H-pyrazol-4-yl)pyridin-3-yl)acrylamide] | 58% |
| 97% | 100% | Cc1ccc(NC(=O)/C=C/c2cnccc2-c2cn[nH]c2)c(F)c1 [Example 296, (2E)-N-(2-fluoro-4-methylphenyl)-3-(4-(1H-pyrazol-4-yl)pyridin-3-yl)acrylamide] | 59% |
| 98% | 103% | O=C(/C=C/c1cnccc1-c1cnn(C2CC2)c1)Nc1ccc2c(c1)CCN(CC(F)(F)F)C2 [Example 316, (2E)-3-(4-(1-Cyclopropyl-1H-pyrazol-4-yl)pyridin-3-yl)-N-(2-(2,2,2-trifluoroethyl)-1,2,3,4-tetrahydroisoquinolin-6-yl)acrylamide] | 49% |
| 92% | 99% | Cn1cc(-c2ccncc2/C=C/C(=O)Nc2ccc(CC(F)(F)F)cc2)cn1 [Example 276, (2E)-3-(4-(1-methyl-1H-pyrazol-4-yl)pyridin-3-yl)-N-(4-(2,2,2-trifluoroethyl)phenyl)acrylamide] | 60% |
| 97% | 96% | O=C(/C=C/c1cnccc1-c1ccc2[nH]ncc2c1)Nc1ccc(CN2CCOCC2)cc1 [Example 242, (2E)-3-(4-(1H-indazol-5-yl)pyridin-3-yl)-N-(4-(morpholin-4-ylmethyl)phenyl)acrylamide] | 55% |
